# Data from US20260217983A1, “SULFONIUM SALT PHOTOINITIATORS AND METHODS OF LED CURING A COMPOSITION WITH SAID SULFONIUM SALT PHOTOINITIATORS” (ARKEMA FRANCE, priority 2022, published 2026).
# Entries after “also recorded” stand apart in the source; their conditions may differ.
# What was measured:
# [1] = FTIR-ATR cure test of cationic formulations (epoxide, oxetane conversion, 1100 cm^-1 peak growth); conditions: 405 nm, cationic systems
# Protocol: Matrixes: In a 1000 mL of metal can, formulation matrix was charged according to the percentage in Table 12. The 1000-1005 g mixture of each matrix sample was prepared and mixed by mechanical mixer for about 1 hour around 60° C. until the solution became clear. Formulations: In a white max 50 jar from FlackTek Inc., photoinitiator and propylene carbonate were loaded at first, mixed by hand with stainless steel spatula, placed in 60° C. oven for about 1 h, mixed again until it became clear. Then, formulation matrix was charged according to the percentage in one of Table 13 to 21. The […]-52.60 g mixture of each sample was prepared and mixed for 3 minutes at 3000 RPM in Speed Mixer from FleackTec Inc. Then, all jars were placed in 60° C. oven for about 2 h, taken out and immediately mixed for another 2 minutes until the solution became clear.
# A Fourier Transform Infrared (FTIR) with an Attenuated Total Reflection (ATR) setup was used. All polymerization rate measurements were performed using Nicolet iS50 FT-IR Spectrometer from Thermo Scientific, equipped with a standard DLaTGS detector. A lamp holder for the ART platform of FTIR unit can be customized and printed from Arkema N3xtDimention® engineered resin N3D-TOUGH784 in order to ensure precisely fit of a 365 nm lamp Accucure ULM-2-365 or a 405 nm lamp Accucure ULM-2-405 from Digital Light Labs. On the bottom of this lamp holder, a dry air channel is built in to allow air uniformly blowing over sample surface, the gas flow rate can be controlled over a rotameter. The LED light was manually triggered by Ultraviolet illumination & Measurement System. LED light exposure can be programed by AccuCure software. For measurement, 25 μL of liquid sample was placed in the center of an ATR crystal. 3 mil of thin film was prepared by a customized coating applicator (3 mil WFM, G1046 from BYK). The LED lamp with holder was place on the top of ART platform. Then FTIR scan was initiated to collect liquid IR spectrum at first. Each IR spectrum of a specific exposure time at 10 mW/cm^2 of LED light were collected. Measurements of acrylate conversion were taken at the peak height under the reference peak around 1727 cm^−1; the acrylate peak of SR833S at approximately 1407 cm^−1, the epoxide peak of UviCure S105 at approximately 790 cm^−1, and the oxetane peak of UViCure S130 at approximately 970 cm^−1 were also measured. Since the ring opening of both epoxide and oxetane generated C—O—C bond, the growth of C—O—C IR peak height at ~1100 cm^−1 was monitored as well. The resulting of peak 1100 cm^−1 growth rate could be calculated to assess total cationic cure speed. Peak heights were determined using the same baseline where a baseline is chosen to be the two lowest points between 600 cm^−1 and 1800 cm^−1. The peak height under the peak and above the baseline was then determined. The integration limits for liquid and the cured sample are not identical but are similar, especially for the reference peak.
# The ratios of the acrylate peak height, epoxide peak height, ring opening peak height from both epoxide and oxetane to the reference peak height were determined for both the liquid and the cured samples. Degree of cure or conversion or peak growth rate, expressed as percentage reacted acrylate or epoxide or ring opening of both epoxide and oxetane, was calculated from the equation below: […]
# Where Rliq is the peak height ratio of the liquid sample and Rc is the peak height ratio of the LED cured sample. The resulting acrylate and epoxide conversions or C—O—C growth rates were collected and listed in Tables 13 to 21, plotted in FIG. 1 to 8 and FIG. 10.
# [2] = UV Vis spectra measurement; type: physicochemical; conditions: 10 ppm in acetonitrile
# From the text: UV-Vis spectrum of each sample was taken with a Shimadzu UV1800 spectrophotometer using a 1.0 cm path of cuvette quartz cell in accordance with ASTM E169-04, and scanning the spectrum over the wavelength range of 450 to 200 nm.
# [3] = Belt curing performance (thumb-twist depth cure) in UViCure S105E resin; conditions: 24 μm film, under air, PI 2 wt %
# Protocol: (§1) The photoinitiators were dissolved either in neat UViCure S105E resin or a hybrid acrylate/epoxy resin (prepared by mixing 60 wt parts UViCure S105E, 15 wt parts UViCure S130 and 25 wt parts SR492; all product are available from Sartomer). Formulations were prepared by combining all materials in the given proportions and then stirring at 30-40° C. until the samples were fully homogeneous; the formulations were then allowed to cool to room temperature. For all experiments, the formulations were cured on Leneta Form 3N-31 gloss finish paper at 6 μm and 24 μm film thickness using a belt-cure instrument; the films were prepared using a K-bar. All films were then cured under an LED lamp at a given belt speed. ‘Depth cure’ for each formulation was assessed using the ‘thumb-twist’ test (where no visible mark is made when a thumb is pressed down firmly onto the coating with a twisting motion), and from the belt speed; the calculated cure speed (in m/min) is given.
# [4] = Belt curing performance (thumb-twist depth cure) in hybrid acrylate/epoxy resin; conditions: 24 μm film, under air, PI 2 wt %
# Protocol: as §1
# [5] = Solubility in propylene carbonate at ambient temperature; type: physicochemical; conditions: 20-25° C.
# Protocol: Solubility of selected sulfonium salts in propylene carbonate at ambient temperature (20-25° C.) was determined.
# [6] = Transmittance at 0.01% w/v in propylene carbonate; type: physicochemical
# Protocol: The samples were prepared at 0.01% w/v in propylene carbonate.
# [7] = 3D printability in hybrid system on 405 nm DLP printers; conditions: hybrid formulations of Table 23
# [8] = LED 365 nm, 100% intensity (=70.1 mJ/cm^2), belt speed 40 m/min
structure (smiles),measurement,setting,value
"CCOP(=O)(C(=O)c1c(C)cc(C)cc1C)c1ccccc1 (centres unmarked) [Speedcure TPO-L, Ethyl(2,4,6-trimethylbenzoyl)phenyl phosphinate, reference compound]",effect of radical photoinitiator on cationic photopolymerization,[1],Neither radical photoinitiator BKL nor TPO-L could promote cationic photopolymerization; also recorded: slowed down the most
"CC(C)(C)c1ccc([I+]c2ccc(C(C)(C)C)cc2)cc1 [Speedcure 938, Bis (4-tert-butylphenyl) iodonium hexafluorophosphate, reference compound]",UV absorption over 310 nm wavelength,[2],did not have any absorption at all
"CC(C)c1ccc2c(c1)c(=O)c1ccccc1[s+]2-c1ccc(-c2ccccc2)cc1 (centres unmarked) [Omnicat 550, 10-[1,1′-Biphenyl]-4-yl-2-(1-methylethyl)-9-oxo-9H-thioxanthenium hexafluorophosphate, reference compound]",Cure speed in UViCure S105E resin,[3]; [8],5.0 m/min
same,Cure speed in UViCure S105E resin,"[3]; LED 395 nm, 40 m/min, 100% intensity (=164.5 mJ/cm^2)",8.0 m/min
same,Cure speed in hybrid acrylate/epoxy resin,[4]; [8],5.7 m/min
same,Cure speed in hybrid acrylate/epoxy resin,"[4]; LED 395 nm, 80 m/min, 50% intensity (=36.9 mJ/cm^2)",10.5 m/min
same,Solubility in propylene carbonate,[5],25 wt %
same,% Transmittance at 355 nm,[6],86.8%
same,% Transmittance at 420 nm,[6],99.1%
same,printability on 405 nm DLP printers,[7],not printable even with over exposure time
"COC(OC)(C(=O)c1ccccc1)c1ccccc1 [Speedcure BKL, 2,2-dimethoxy-1,2-diphenylethan-1-one, reference compound]",effect of radical photoinitiator on cationic photopolymerization,[1],Neither radical photoinitiator BKL nor TPO-L could promote cationic photopolymerization
